# Results taken from paper PMC5218480 (PLoS ONE, 2017).
# Test system: MV-4-11 cells
# Experiment: Gene expression microarray analysis (Affymetrix PrimeView) and GSEA
# Format: cell-based, human
# Set-up: RFU PODN (11730768_x_at) / Fold change /veh PODN (11730768_x_at) / RFU LINC00158 (11744669_a_at) / Fold change /veh LINC00158 (11744669_a_at) / RFU DUSP10 (11751237_a_at) / Fold change /veh DUSP10 (11751237_a_at) / RFU ID3 (11757404_x_at) / Fold change /veh ID3 (11757404_x_at) / RFU PLEKHG5 (11737974_s_at) / Fold change /veh PLEKHG5 (11737974_s_at) / RFU LRRC4B (11730491_at) / Fold change /veh LRRC4B (11730491_at) / RFU GIMAP4 (11747438_a_at) / Fold change /veh GIMAP4 (11747438_a_at) / RFU KRT8 (11758183_x_at) / Fold change /veh KRT8 (11758183_x_at) / RFU CNN1 (11734310_a_at) / Fold change /veh CNN1 (11734310_a_at) / RFU VPS37D (11726825_at) / Fold change /veh VPS37D (11726825_at) / RFU C10orf10 (11716522_x_at) / Fold change /veh C10orf10 (11716522_x_at) / RFU KIR2DL2 /// KIR2DL4 /// KIR2DL5A /// KIR2DL5B /// KIR2DS1 /// KIR2DS2 /// KIR2DS3 /// KIR2DS4 /// KIR3DL3 /// KIR3DL3 /// KIR3DS1 (11738374_at) / Fold change /veh KIR2DL2 /// KIR2DL4 /// KIR2DL5A /// KIR2DL5B /// KIR2DS1 /// KIR2DS2 /// KIR2DS3 /// KIR2DS4 /// KIR3DL3 /// KIR3DL3 /// KIR3DS1 (11738374_at) / RFU C1QL1 (11718748_at) / Fold change /veh C1QL1 (11718748_at) / RFU TMPRSS4 (11747572_a_at) / Fold change /veh TMPRSS4 (11747572_a_at) / RFU HAMP (11756126_x_at) / Fold change /veh HAMP (11756126_x_at) / RFU RNFT2 (11725882_a_at) / Fold change /veh RNFT2 (11725882_a_at) / RFU NR4A2 (11747474_a_at) / Fold change /veh NR4A2 (11747474_a_at) / RFU ABCC12 (11746883_a_at) / Fold change /veh ABCC12 (11746883_a_at) / RFU TMEM136 (11760407_x_at) / Fold change /veh TMEM136 (11760407_x_at) / RFU CLDN22 /// WWC2 (11732394_at) / Fold change /veh CLDN22 /// WWC2 (11732394_at) / RFU HLA-DPB1 (11760878_x_at) / Fold change /veh HLA-DPB1 (11760878_x_at) / RFU SPINT1 (11716480_a_at) / Fold change /veh SPINT1 (11716480_a_at) / RFU GAP43 (11754022_s_at) / Fold change /veh GAP43 (11754022_s_at) / RFU A4GNT (11735810_at) / Fold change /veh A4GNT (11735810_at) / RFU PRB3 (11715151_x_at) / Fold change /veh PRB3 (11715151_x_at) / RFU TUBB4B (11761932_at) / Fold change /veh TUBB4B (11761932_at) / RFU CAPN14 (11732068_a_at) / Fold change /veh CAPN14 (11732068_a_at) / RFU TMCC2 (11721928_a_at) / Fold change /veh TMCC2 (11721928_a_at) / RFU IRGQ (11745062_a_at) / Fold change /veh IRGQ (11745062_a_at) / RFU FAM174B (11720279_a_at) / Fold change /veh FAM174B (11720279_a_at) / RFU TMPRSS4 (11748680_a_at) / Fold change /veh TMPRSS4 (11748680_a_at) / RFU FAM212B (11763350_a_at) / Fold change /veh FAM212B (11763350_a_at) / RFU PLEKHG5 (11743358_a_at) / Fold change /veh PLEKHG5 (11743358_a_at) / RFU ZSCAN30 (11745921_a_at) / Fold change /veh ZSCAN30 (11745921_a_at) / RFU CMKLR1 (11741424_a_at) / Fold change /veh CMKLR1 (11741424_a_at) / RFU LOC101060620 /// MAPK8IP1 (11723275_at) / Fold change /veh LOC101060620 /// MAPK8IP1 (11723275_at) / RFU SPTSSB (11747773_x_at) / Fold change /veh SPTSSB (11747773_x_at) / RFU PRSS12 (11739890_at) / Fold change /veh PRSS12 (11739890_at) / RFU BIN1 (11741810_x_at) / Fold change /veh BIN1 (11741810_x_at) / RFU WNT11 (11732464_a_at) / Fold change /veh WNT11 (11732464_a_at) / RFU C10orf10 (11716521_a_at) / Fold change /veh C10orf10 (11716521_a_at) / RFU C5orf56 (11738089_at) / Fold change /veh C5orf56 (11738089_at) / RFU CYB561 (11721691_x_at) / Fold change /veh CYB561 (11721691_x_at) / RFU ANKRD19P (11752326_a_at) / Fold change /veh ANKRD19P (11752326_a_at) / RFU OR2T12 /// OR2T33 /// OR2T8 (11738714_s_at) / Fold change /veh OR2T12 /// OR2T33 /// OR2T8 (11738714_s_at) / RFU VCAN (11748164_a_at) / Fold change /veh VCAN (11748164_a_at) / RFU JSRP1 (11732532_at) / Fold change /veh JSRP1 (11732532_at) / RFU KRTAP10-11 (11738290_x_at) / Fold change /veh KRTAP10-11 (11738290_x_at) / RFU MYO3A (11730013_a_at) / Fold change /veh MYO3A (11730013_a_at) / RFU EBF3 (11725865_a_at) / Fold change /veh EBF3 (11725865_a_at) / RFU CAMK2N1 (11719241_x_at) / Fold change /veh CAMK2N1 (11719241_x_at) / RFU C5orf56 (11738088_a_at) / Fold change /veh C5orf56 (11738088_a_at) / RFU OLFML3 (11715873_a_at) / Fold change /veh OLFML3 (11715873_a_at) / RFU LOC100653217 /// NTM (11731650_a_at) / Fold change /veh LOC100653217 /// NTM (11731650_a_at) / RFU MAPK11 (11762145_a_at) / Fold change /veh MAPK11 (11762145_a_at) / RFU FIZ1 (11724087_x_at) / Fold change /veh FIZ1 (11724087_x_at) / RFU OASL (11726364_x_at) / Fold change /veh OASL (11726364_x_at) / RFU SOX15 (11748057_x_at) / Fold change /veh SOX15 (11748057_x_at) / RFU CD79A (11719716_a_at) / Fold change /veh CD79A (11719716_a_at) / RFU HIST1H1D (11736915_at) / Fold change /veh HIST1H1D (11736915_at) / RFU CASKIN2 (11723855_a_at) / Fold change /veh CASKIN2 (11723855_a_at) / RFU LOC730098 (11760151_x_at) / Fold change /veh LOC730098 (11760151_x_at) / RFU OR4N2 (11742367_at) / Fold change /veh OR4N2 (11742367_at) / RFU PRRT2 (11749266_a_at) / Fold change /veh PRRT2 (11749266_a_at) / RFU SNX32 (11753110_a_at) / Fold change /veh SNX32 (11753110_a_at) / RFU CDHR5 (11726645_a_at) / Fold change /veh CDHR5 (11726645_a_at) / RFU RCAN1 (11760418_a_at) / Fold change /veh RCAN1 (11760418_a_at) / RFU FAM167A (11723789_a_at) / Fold change /veh FAM167A (11723789_a_at) / RFU FAM26E (11764081_at) / Fold change /veh FAM26E (11764081_at) / RFU ISYNA1 (11749810_s_at) / Fold change /veh ISYNA1 (11749810_s_at) / RFU ACY1 (11761880_at) / Fold change /veh ACY1 (11761880_at) / RFU 11764098_at / Fold change /veh 11764098_at / RFU SAMD14 (11745864_x_at) / Fold change /veh SAMD14 (11745864_x_at) / RFU NPB (11741838_a_at) / Fold change /veh NPB (11741838_a_at) / RFU TMPRSS6 (11731388_a_at) / Fold change /veh TMPRSS6 (11731388_a_at) / RFU KRTAP10-2 (11738614_at) / Fold change /veh KRTAP10-2 (11738614_at) / RFU ARHGAP8 /// PRR5-ARHGAP8 (11727945_x_at) / Fold change /veh ARHGAP8 /// PRR5-ARHGAP8 (11727945_x_at) / RFU KRTAP5-7 /// NADSYN1 (11734609_at) / Fold change /veh KRTAP5-7 /// NADSYN1 (11734609_at) / RFU RASL12 (11751679_a_at) / Fold change /veh RASL12 (11751679_a_at) / RFU CDKN2B (11736163_a_at) / Fold change /veh CDKN2B (11736163_a_at) / RFU PRF1 (11729649_at) / Fold change /veh PRF1 (11729649_at) / RFU, ZNF638 /// ZNF638-IT1 / Fold change vs veh, ZNF638 /// ZNF638-IT1 / RFU, PANK3 / Fold change vs veh, PANK3 / RFU, SH3YL1 / Fold change vs veh, SH3YL1 / RFU, ZEB2 / Fold change vs veh, ZEB2 / RFU, NRIP1 / Fold change vs veh, NRIP1 / RFU, PTTG1IP / Fold change vs veh, PTTG1IP / RFU, CAPN2 / Fold change vs veh, CAPN2 / RFU, MED14 / Fold change vs veh, MED14 / RFU, SNORA58 / Fold change vs veh, SNORA58 / RFU, C1orf63 / Fold change vs veh, C1orf63 / RFU, LRRFIP1 / Fold change vs veh, LRRFIP1 / RFU, NDUFAF7 / Fold change vs veh, NDUFAF7 / RFU, SLC12A2 / Fold change vs veh, SLC12A2 / RFU, IBTK / Fold change vs veh, IBTK / RFU, ESF1 / Fold change vs veh, ESF1 / Fold change vs veh, TMEM50B / RFU, TAOK1 / Fold change vs veh, TAOK1 / RFU, ACBD3 / Fold change vs veh, ACBD3 / RFU, TMA16 / Fold change vs veh, TMA16 / RFU, RWDD3 / Fold change vs veh, RWDD3 / RFU, BCAT1 / Fold change vs veh, BCAT1 / RFU, EDEM3 / Fold change vs veh, EDEM3 / RFU, TMEM33 / Fold change vs veh, TMEM33 / RFU, WDR75 / Fold change vs veh, WDR75 / RFU, AHCTF1 / Fold change vs veh, AHCTF1 / RFU, TFRC / Fold change vs veh, TFRC / RFU, ZDHHC17 / Fold change vs veh, ZDHHC17 / RFU, NOM1 / Fold change vs veh, NOM1 / RFU, ARL8B / Fold change vs veh, ARL8B / RFU, ZBTB11 / Fold change vs veh, ZBTB11 / RFU, TAMM41 / Fold change vs veh, TAMM41 / RFU, KIAA1704 /// LOC100996395 / Fold change vs veh, KIAA1704 /// LOC100996395 / RFU, ING1 / Fold change vs veh, ING1 / RFU, TRMT61B / Fold change vs veh, TRMT61B / RFU, FUBP3 / Fold change vs veh, FUBP3 / RFU, TP53 / Fold change vs veh, TP53 / RFU, TNKS2 / Fold change vs veh, TNKS2 / RFU, ZFP14 / Fold change vs veh, ZFP14 / RFU, ACTR2 / Fold change vs veh, ACTR2 / RFU, PPP3R1 / Fold change vs veh, PPP3R1 / RFU, PIK3R1 / Fold change vs veh, PIK3R1 / RFU, HNRNPA1 / Fold change vs veh, HNRNPA1 / RFU, RNF170 / Fold change vs veh, RNF170 / RFU, ZNF28 / Fold change vs veh, ZNF28 / RFU, RNGTT / Fold change vs veh, RNGTT / RFU, OGT / Fold change vs veh, OGT / RFU, BRD1 / Fold change vs veh, BRD1 / RFU, MARS / Fold change vs veh, MARS / RFU, ZNF655 / Fold change vs veh, ZNF655 / RFU, FAHD1 / Fold change vs veh, FAHD1 / RFU, BDP1 / Fold change vs veh, BDP1 / RFU, LRRCC1 / Fold change vs veh, LRRCC1 / RFU, ARID1A / Fold change vs veh, ARID1A / RFU, ZNF146 / Fold change vs veh, ZNF146 / RFU, ZNF330 / Fold change vs veh, ZNF330 / RFU, GPN3 / Fold change vs veh, GPN3 / RFU, C9orf123 / Fold change vs veh, C9orf123 / RFU, N4BP2L2 / Fold change vs veh, N4BP2L2 / RFU, ARFIP1 / Fold change vs veh, ARFIP1 / RFU, FAM179B / Fold change vs veh, FAM179B / RFU, BCL10 / Fold change vs veh, BCL10 / RFU, UHRF1BP1L / Fold change vs veh, UHRF1BP1L / RFU, BET1 / Fold change vs veh, BET1 / RFU, CNOT2 / Fold change vs veh, CNOT2 / RFU, ZNF268 / Fold change vs veh, ZNF268 / Fold change vs veh, ZNF507 / RFU, DGCR2 / Fold change vs veh, DGCR2 / RFU, WDSUB1 / Fold change vs veh, WDSUB1 / Fold change vs veh, HSP90B1 /// MIR3652 / RFU, ADSS / Fold change vs veh, ADSS / RFU, GK / Fold change vs veh, GK / RFU, ZNF148 / Fold change vs veh, ZNF148 / RFU, TAF9 / Fold change vs veh, TAF9 / RFU, SLC1A5 / Fold change vs veh, SLC1A5 / RFU, SLMO2 / Fold change vs veh, SLMO2 / RFU, ABCC4 / Fold change vs veh, ABCC4 / RFU, LOC101060439 /// RAP1B / Fold change vs veh, LOC101060439 /// RAP1B / RFU, RFX7 / Fold change vs veh, RFX7 / RFU, GTPBP10 / Fold change vs veh, GTPBP10 / RFU, CNEP1R1 / Fold change vs veh, CNEP1R1 / RFU, BIVM-ERCC5 /// ERCC5 / Fold change vs veh, BIVM-ERCC5 /// ERCC5 / RFU, ILF3 / Fold change vs veh, ILF3 / RFU 11762660_at / Fold change /veh 11762660_at / RFU VCAN (11757783_s_at) / Fold change /veh VCAN (11757783_s_at) / RFU DDX43 (11728927_at) / Fold change /veh DDX43 (11728927_at) / RFU KRT8 (11758188_x_at) / Fold change /veh KRT8 (11758188_x_at) / RFU NKD1 (11759106_at) / Fold change /veh NKD1 (11759106_at) / RFU SRD5A1 (11742802_a_at) / Fold change /veh SRD5A1 (11742802_a_at) / RFU TPSAB1 /// TPSB2 (11721975_s_at) / Fold change /veh TPSAB1 /// TPSB2 (11721975_s_at) / RFU GSTM3 (11746129_a_at) / Fold change /veh GSTM3 (11746129_a_at) / RFU IL23R (11737362_x_at) / Fold change /veh IL23R (11737362_x_at) / RFU TMEM51 (11727254_a_at) / Fold change /veh TMEM51 (11727254_a_at) / RFU PIWIL2 (11732686_x_at) / Fold change /veh PIWIL2 (11732686_x_at) / RFU ORM1 (11744905_x_at) / Fold change /veh ORM1 (11744905_x_at) / RFU CCDC152 (11743942_at) / Fold change /veh CCDC152 (11743942_at) / RFU ECM1 (11717891_a_at) / Fold change /veh ECM1 (11717891_a_at) / RFU IL23R (11748794_a_at) / Fold change /veh IL23R (11748794_a_at) / RFU TNFAIP8L3 (11732012_x_at) / Fold change /veh TNFAIP8L3 (11732012_x_at) / RFU MBOAT4 (11741988_at) / Fold change /veh MBOAT4 (11741988_at) / RFU 11764193_at / Fold change /veh 11764193_at / RFU TMEM53 (11763286_at) / Fold change /veh TMEM53 (11763286_at) / RFU MAGEB2 (11727129_at) / Fold change /veh MAGEB2 (11727129_at) / RFU TMEM200A (11744735_a_at) / Fold change /veh TMEM200A (11744735_a_at) / RFU CCDC152 (11751479_a_at) / Fold change /veh CCDC152 (11751479_a_at) / RFU FAM211A (11726209_a_at) / Fold change /veh FAM211A (11726209_a_at) / RFU RGS16 (11746705_a_at) / Fold change /veh RGS16 (11746705_a_at) / RFU VCAN (11755009_s_at) / Fold change /veh VCAN (11755009_s_at) / RFU RHOB (11743442_s_at) / Fold change /veh RHOB (11743442_s_at) / RFU RGS16 (11720943_a_at) / Fold change /veh RGS16 (11720943_a_at) / RFU RGS16 (11720944_at) / Fold change /veh RGS16 (11720944_at) / RFU, VPS4B / Fold change vs veh, VPS4B / RFU, CREB1 / Fold change vs veh, CREB1 / RFU, DNAJC13 / Fold change vs veh, DNAJC13 / RFU, GNAQ / Fold change vs veh, GNAQ / RFU, CDK5R1 / Fold change vs veh, CDK5R1 / RFU, ZRANB3 / Fold change vs veh, ZRANB3 / RFU, CUL4A / Fold change vs veh, CUL4A / RFU, CCNY / Fold change vs veh, CCNY / RFU, UFL1 / Fold change vs veh, UFL1 / RFU, COG3 / Fold change vs veh, COG3 / RFU, DIAPH2 / Fold change vs veh, DIAPH2 / RFU, SKA2 / Fold change vs veh, SKA2 / RFU, AFF3 / Fold change vs veh, AFF3 / RFU, LMF1 / Fold change vs veh, LMF1 / RFU, IPO11 / Fold change vs veh, IPO11 / RFU, DFFB / Fold change vs veh, DFFB / RFU, FOXP1 / Fold change vs veh, FOXP1 / RFU, CARD8 / Fold change vs veh, CARD8 / RFU, STRN3 / Fold change vs veh, STRN3 / RFU, ADK / Fold change vs veh, ADK / RFU, RASSF2 / Fold change vs veh, RASSF2 / RFU, WIPF1 / Fold change vs veh, WIPF1 / RFU, LARP1B / Fold change vs veh, LARP1B / RFU, RASA1 / Fold change vs veh, RASA1 / RFU, RB1 / Fold change vs veh, RB1 / RFU, PPFIA1 / Fold change vs veh, PPFIA1 / RFU, MAT2A / Fold change vs veh, MAT2A / RFU, CCT5 / Fold change vs veh, CCT5 / RFU, WDR92 / Fold change vs veh, WDR92 / RFU, CUX1 / Fold change vs veh, CUX1 / RFU, TTC7A / Fold change vs veh, TTC7A / RFU, TMEM135 / Fold change vs veh, TMEM135 / RFU, DEPTOR / Fold change vs veh, DEPTOR / RFU, CPM / Fold change vs veh, CPM / RFU, DNAJB6 / Fold change vs veh, DNAJB6 / RFU, CACNA2D3 / Fold change vs veh, CACNA2D3 / RFU, DTX4 / Fold change vs veh, DTX4 / RFU, TFCP2 / Fold change vs veh, TFCP2 / RFU, GMCL1 /// GMCL1P1 / Fold change vs veh, GMCL1 /// GMCL1P1 / RFU, AEBP2 / Fold change vs veh, AEBP2 / RFU, SNHG1 /// SNORD22 /// SNORD25 /// SNORD26 /// SNORD27 /// SNORD28 /// SNORD29 /// SNORD31 / Fold change vs veh, SNHG1 /// SNORD22 /// SNORD25 /// SNORD26 /// SNORD27 /// SNORD28 /// SNORD29 /// SNORD31 / Fold change (Aza/veh), C12orf56 (ProbeSet 11735607_a_at) / Fold change (ACY-1035/veh), C12orf56 (ProbeSet 11735607_a_at) / Fold change (Aza/veh), FGFR1OP (ProbeSet 11751329_s_at) / Fold change (ACY-1035/veh), FGFR1OP (ProbeSet 11751329_s_at) / Fold change (Aza/veh), VPS36 (ProbeSet 11739960_a_at) / Fold change (ACY-1035/veh), VPS36 (ProbeSet 11739960_a_at) / RFU SYPL1 (11715823_x_at) / Fold change /veh SYPL1 (11715823_x_at) / RFU IGFBP7 (11715501_s_at) / Fold change /veh IGFBP7 (11715501_s_at) / RFU REEP3 (11722064_at) / Fold change /veh REEP3 (11722064_at) / RFU IGLL1 (11728026_x_at) / Fold change /veh IGLL1 (11728026_x_at): dose or concentration left out as unconfirmed
# Conditions: MV-4-11 cells, 48 hours
smiles,measurement,value
Nc1ncn([C@@H]2O[C@H](CO)[C@@H](O)[C@H]2O)c(=O)n1 [azacitidine],RFU HLA-DPB1 (11760878_x_at),15.97 RFU
